molecular target: Induced myeloid leukemia cell differentiation protein Mcl-1 (Homo sapiens) (UniProt Q07820); assay: Mcl-1/Noxa binding inhibitor potency, dose response, biochemical, TR-FRET (AID 1417); settings: Mcl-1/Noxa peptide interaction, cell-free TR-FRET (terbium/rhodamine), 2 h; measured here: absolute IC50
Sequence (Q07820 whole entry, looked up): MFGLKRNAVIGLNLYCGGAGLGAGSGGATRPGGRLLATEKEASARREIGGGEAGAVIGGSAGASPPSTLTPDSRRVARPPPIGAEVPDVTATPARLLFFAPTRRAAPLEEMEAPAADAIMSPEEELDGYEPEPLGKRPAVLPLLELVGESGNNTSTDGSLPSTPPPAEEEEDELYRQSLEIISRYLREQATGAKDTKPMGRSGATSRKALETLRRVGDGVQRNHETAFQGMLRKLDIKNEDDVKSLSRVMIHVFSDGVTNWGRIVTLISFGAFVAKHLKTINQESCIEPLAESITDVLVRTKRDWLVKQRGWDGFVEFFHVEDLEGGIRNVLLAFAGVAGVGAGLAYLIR

Structure (SMILES)	IC50
CCn1nc(C)c(/C=N/NC(=O)Cc2ccc(Cl)cc2)c1C	> 54 µM
C=CCOC(=O)C1=C(C)N=c2s/c(=C3\C(=O)N(CC(=O)O)c4ccccc43)c(=O)n2C1c1ccc(OC)cc1 (centres undefined)	3.48 µM
CCC1(C(=O)OC)CCc2c(cc(OC)c3ccccc23)C1=O (centres undefined)	48.1 µM
CCN(CC)c1ccc(/C=N/N2CCN(Cc3ccccc3)CC2)cc1	> 54 µM
COc1ccc(-n2nc3cc(C)c(N)c(Br)c3n2)cc1	2.86 µM
Oc1c(/C=N/c2ccccn2)sc2ccccc12	< 0.4 µM
CCOC(=O)c1cc(-c2ccco2)nc2c1c(C)nn2-c1cccc(Cl)c1	2.36 µM
CN=c1scc(-c2cccs2)n1/N=C/c1ccc(O)c(O)c1O	< 0.4 µM
O=C(CCO)c1ccc(O)cc1	3.19 µM
CC(C(=O)NC1CCCC1)N(Cc1ccco1)C(=O)c1snc(C(=O)NC2CCCC2)c1N (centres undefined)	> 54 µM
CC1=C(C(=O)OCC(C)C)C(c2ccsc2)NC(=O)N1 (centres undefined)	> 54 µM
O=C(O)CCC(=O)NCCC1=c2ccccc2=N/C1=C\c1c(O)n(Cc2ccc(F)cc2)c(=S)[nH]c1=O	< 0.4 µM
Cc1cc2nc(-c3ccc(SCc4ccc(C(=O)O)cc4)nc3)[nH]c2cc1C	< 0.4 µM
COC(=O)c1ccc2nc(Nc3nc4ccc(F)cc4s3)sc2c1	1.75 µM
O=C(Nc1ccc2c(c1)nc1n2CCN(C2CCCCC2)C1)c1ccco1	9.74 µM
O=C(O)CCn1cc(C=C2C(=O)NC(=S)NC2=O)c(-c2cc3ccccc3oc2=O)n1	3.08 µM
c1ccc(CN=C2NN=C(c3cc4ccccc4o3)CS2)cc1	> 54 µM
O=C(N=Nc1c(O)n(Cc2ccccc2)c2ccccc12)c1cc2ccccc2cc1O	4.76 µM
O=C(Nc1ccc(Nc2ccncc2)cc1)c1ccc(Nc2ccnc3ccc([N+](=O)[O-])cc23)cc1[N+](=O)[O-]	3.11 µM
O=C(Nc1ccc(S(=O)(=O)Nc2nccs2)cc1)/C(=C/c1ccccc1Cl)NC(=O)c1ccccc1	2.93 µM
Oc1c(Cl)cc(Cl)c(Cl)c1Cc1c(O)c(Cl)cc(Cl)c1Cl	< 0.4 µM
O=[N+]([O-])c1ccc(-c2cc(-c3ccc(Cl)cc3)n[nH]2)cc1	5.61 µM
O=C(Nc1ccc2nc(-c3ccco3)c(-c3ccco3)nc2c1)NC1CC1	1.33 µM
COc1cc(C(=O)Nc2ccc(N(C)C)cc2)cc(OC)c1OC	> 54 µM
CC(C)Nc1nnc(SCC(=O)Nc2ccc3c(c2)C(=O)c2ccccc2C3=O)s1	2.01 µM

Structure (SMILES)	IC50
Cc1nc(S/C(=C\c2ccc(-c3ccc(C(=O)O)c(Cl)c3)o2)C(=O)O)n[nH]1	< 0.4 µM
CNc1ccc(Br)cc(C(=O)/C=C/c2cc(OC)ccc2OC)c1=O	1.73 µM
CSCc1nc2sc(C(=O)Nc3nc(C)cs3)c(C)c2c(=O)[nH]1	4.1 µM
Cc1nc(C)c(C(=O)Nc2nc3c(C)cccc3s2)o1	2.63 µM
C/C(=N\Nc1ccc(C(=O)O)cc1)c1ccc2c(c1)Nc1ccccc1S2	< 0.4 µM
CNc1ccc(Br)cc(C(=O)/C=C/c2ccc(OC)cc2OC)c1=O	3.53 µM
O=C(O)c1cc(-c2ccc(/C=C3\NC(=O)N(c4ccccc4)C3=O)o2)ccc1Cl	> 54 µM
S=C(NNc1ccnc2cc(Cl)ccc12)Nc1ccc(Cl)cc1Cl	6.37 µM
COc1ccc(NC(=O)c2cc3cccc(OC)c3oc2=Nc2ccc(C(=O)O)cc2)cc1OC	2.38 µM
Oc1ccc(N=Nc2cccc(Cl)c2)cc1C=Nc1ccc(N2CCOCC2)cc1	> 54 µM
Oc1ccccc1NCC(O)Cn1ccc2ccccc21 (centres undefined)	5.23 µM
COc1cc(/C=C2/SC(=O)NC2=O)ccc1Oc1ccc([N+](=O)[O-])cc1[N+](=O)[O-]	4.2 µM
Cn1cc(C(=O)N/N=C/c2ccc([N+](=O)[O-])cc2)c2ccccc21	3.04 µM
CC1=C(C#N)C(=O)NC(=O)/C1=C\c1ccc(-c2cc(C)c(C)cc2[N+](=O)[O-])o1	< 0.4 µM
COc1ccccc1C1=Nc2cccc3cccc(c23)N1	> 54 µM
Oc1ccccc1C1Nc2cccc3cccc(c23)N1	6.64 µM
O=C(O)COc1ccccc1C(Nc1cccnc1)c1cc(Cl)c2cccnc2c1O (centres undefined)	< 0.4 µM
CN(CCC#N)C(=O)COC(=O)c1c2c(nc3ccccc13)/C(=C/c1ccco1)CC2	1.63 µM
Cc1ccc(C(=O)OCC(=O)Nc2ccc(N(C)C)cc2)cc1NC(=O)c1ccco1	> 54 µM
O=C(/C=C1\NC2(CCCC2)Cc2ccccc21)C(=O)N/N=C/c1ccc(O)c(O)c1	3.47 µM
O=C(Nc1ccc(N2CCOCC2)cc1)Nc1ccc2nc(-c3ccco3)c(-c3ccco3)nc2c1	< 0.4 µM
CCOc1ccc(N=C2NC(=O)S/C2=C\c2ccc(O)cc2)cc1	1.26 µM
Cc1cc2nc(-c3ccc(SCC(=O)N4CCN(C(=O)c5ccco5)CC4)nc3)[nH]c2cc1C	4.16 µM
Cc1ccc(C)c(S(=O)(=O)Nc2cc(SCC(=O)O)c(O)c3ccccc23)c1	< 0.4 µM

— PubChem BioAssay AID1417 (Emory University Molecular Libraries Screening Center, 2008)
